# Test results: US12276663B2, “Detection of human leukocyte antigen-A*32:01 in connection with determining drug reaction with eosinophilia and systemic symptoms (DRESS) and methods of treating bacterial infection in a subject with vancomycin-induced DRESS” (priority 2019, dated 2025)
# Where “and” joins values, the source holds several entries; their conditions need not be identical. Equal entries are not always repeated. Entries after “also recorded” stand apart in the source; their conditions may differ. Where two headings read alike, the source gives them in different places.
# Assays:
# [1] = tested on: PBMCs from HLA-A*32:01 positive vancomycin DRESS patients; assay: IFN-γ release ELISpot assay with four glycopeptide antibiotics (Example 2); assay type: cell-based, human
# [2] = tested on: peripheral blood mononuclear cells from vancomycin DRESS patients; assay: Overnight IFN-γ ELISpot assay (Example 1); assay type: cell-based, human
# Protocol: (§1) Overnight IFN-γ ELISpot assays were performed in triplicate (Mabtech Kit 3420-2H) as previously described^10-12 using negative (unstimulated) and positive (anti-CD3 Mabtech antibody and/or SEB) controls.
# [3] = Intradermal skin testing to vancomycin and teicoplanin (Example 2)
# From the text: Patients ID 1,3 and 5 also tolerated ingestion challenges with concurrently administered medications.
# [4] = Clinical characterisation of vancomycin DRESS cases (latency); assay type: in vivo, human
# From the text: Retrospective patients were detected using Vanderbilt's BioVU repository, a deidentified electronic health record (EHR) database linked to a DNA biobank in operation since Feb. 7, 2007. Prospective patients with potential DRESS were enrolled to confirm genetic findings from the BioVU analysis using vancomycin-specific immunological studies to support clinical diagnoses. All patients prospectively enrolled from participating centers provided written or electronic consent. Institutional review board (IRB) approvals were in place for the BioVU study and for all sites contributing to the prospective study (Vanderbilt University Medical Center in Nashville (Tennessee, USA), Austin Health, Peter MacCallum Cancer Centre, and Alfred Health in Melbourne (Victoria, Australia), Fiona Stanley Hospital and Royal Perth Hospital in Perth (Western Australia, Australia)). Saliva and blood were routinely collected from prospective patients, processed and stored as repositories of DNA, peripheral blood mononuclear cells (PBMCs) and plasma.
# All patients provided written or electronic informed consent. Saliva and blood were collected, processed, and stored as repositories of DNA, peripheral blood mononuclear cells (PBMCs), and plasma.
# HLA-A*32:01 = HLA-A*32:01 (Homo sapiens, UniProt P04439, A270S/D101S/D185E/E176V/E277Q/F133L/G103R/G107R/G231S/H175R/I121M/I218V/I322F/K168Q/L105A/L300P/L318F/M331R/P208A/P217A/Q94H/R106L/R138Q/S129P/T104I/T323A/T345S/V100E/V321M/V358M)
# Protocol: High resolution four digit HLA A B C DP DR DQ typing was performed using either sequence-based typing on 454FLX or Illumina Miseq^7,8 or imputed from SNP data from HumanExome BeadChip and GWAS platforms by Expanded Multi-Ethnic Genotyping Array (MEGA^EX, Illumina), HumanOmni-Quad, HumanOmni5-Quad and Human660W-Quad using SNP2HLA as previously described^9. Imputation for HLA-A*32:01 using SNP2HLA has a reported accuracy of 99.46%9. Associations between DRESS and carriage of HLA-A/B/C/DRB1/DQA1/DQB1/DPB1 alleles at the 4-digit level were assessed by conditional logistic regression to accommodate the matching. Analyses were carried out in R version 3.4.3. (R Core Team (2017)). R: A language and environment for statistical computing. R Foundation for Statistical Computing, Vienna, Austria. R-project.org/).
# [5] = Time-to-event analysis of vancomycin-exposed BioVU cohort; assay type: in vivo, human
# Protocol: 137 of the 1,672 HLA-A*32:01 negative individuals were randomly selected to serve as an equal-sized control group. […] ADR latency, defined as the length of time from initiation of vancomycin to symptom onset, as well as any concurrent antimicrobials were documented. Analyses were carried out by Fisher's exact tests, logistic and Cox regression as appropriate in R version 3.4.3.
# [6] = Intradermal skin testing (IDT) (Example 1)
# [7] = tested on: peripheral blood mononuclear cells; assay: Overnight IFN-γ ELISpot assay (Example 1); assay type: cell-based, human; conditions: thirteen controls (HLA-A*32:01 positive donors, non-DRESS ADR patients, non-HLA matched healthy donors)
# Protocol: as §1
# [8] = cited from earlier work
# [9] = Oral / ingestion challenge with concurrently administered medications; conditions: patient 18
# [10] = PBMCs from Patient 17 (carries risk allele)
compound,measurement,setting,value
CCCCCCCCCCNCCN[C@@]1(C)C[C@H](O[C@H]2[C@H](Oc3c4cc5cc3Oc3ccc(cc3Cl)[C@@H](O)[C@@H](NC(=O)[C@@H](CC(C)C)NC)C(=O)N[C@@H](CC(N)=O)C(=O)N[C@H]5C(=O)N[C@H]3C(=O)N[C@H](C(=O)N[C@H](C(=O)O)c5cc(O)c(CNCP(=O)(O)O)c(O)c5-c5cc3ccc5O)[C@H](O)c3ccc(c(Cl)c3)O4)O[C@H](CO)[C@@H](O)[C@@H]2O)O[C@@H](C)[C@H]1O [telavancin],cross-reactivity with vancomycin in IFN-γ ELISpot,[1],cross-reactivity
same,vancomycin DRESS cases with a negative IFN-γ ELISpot response,[1],6/9
same,vancomycin DRESS cases with a positive IFN-γ ELISpot response,[1],three
same,vancomycin DRESS cases with immunological cross-reactivity by ELISpot,[1],13%
same,vancomycin DRESS cases with negative ELISpot / no cross-reactivity,[1],~67%
CO[C@H]1/C=C/O[C@@]2(C)Oc3c(C)c(O)c4c(O)c(c(/C=N/N5CCN(C)CC5)c(O)c4c3C2=O)NC(=O)/C(C)=C\C=C\[C@H](C)[C@H](O)[C@@H](C)[C@@H](O)[C@@H](C)[C@H](OC(C)=O)[C@@H]1C [rifampin],IFN-γ ELISpot response,[1]; PBMCs from Patient 13 and other healthy donors,did not respond
same,IFN-γ ELISpot response,"[1]; PBMCs from Patient ID 2, rifampin at 5 μg/mL",positive response
same,IFN-γ ELISpot response,[2]; [10],positive response
same,IFN-γ ELISpot response,[2]; cells from Patient 4 and other healthy donors,did not respond
CN[C@H](CC(C)C)C(=O)N[C@H]1C(=O)N[C@@H](CC(N)=O)C(=O)N[C@H]2C(=O)N[C@H]3C(=O)N[C@H](C(=O)N[C@H](C(=O)O)c4cc(O)cc(O)c4-c4cc3ccc4O)[C@H](O)c3ccc(c(Cl)c3)Oc3cc2cc(c3O[C@@H]2O[C@H](CO)[C@@H](O)[C@H](O)[C@H]2O[C@H]2C[C@](C)(N)[C@H](O)[C@H](C)O2)Oc2ccc(cc2Cl)[C@H]1O [vancomycin],delayed intradermal testing,[3]; Patient ID 9,positive delayed intradermal testing
same,delayed intradermal testing,"[3]; Patient ID 9, 10, and 11",positive delayed intradermal testing
same,intradermal skin test response,"[3]; Patient ID 15, approximately 6 months after vancomycin DRESS",positive responses
same,median latency period from vancomycin initiation to the first symptoms of DRESS,[4]; 15 patients (Example 2),21 days
same,mean latency period to first symptoms of DRESS,[4]; 23 DRESS cases (Example 1),22.9 days
same,median latency period from vancomycin initiation to the first symptoms of DRESS,[4]; 23 DRESS cases (Example 1),21 days
same,range of latency period to first symptoms of DRESS,[4]; 23 DRESS cases (Example 1),14 to 50 days
same,IFN-γ ELISpot concentration dependence,[1],dose dependent manner
same,vancomycin DRESS cases with a positive IFN-γ ELISpot response,[1],15 (100%)
same,HLA-A*32:01 carriage in vancomycin DRESS cases,HLA-A*32:01; all DRESS cases,19/23
same,HLA-A*32:01 carriage in matched vancomycin tolerant controls,HLA-A*32:01; controls matched to all cases,0/46
same,HLA-A*32:01 carriage in matched controls,HLA-A*32:01; controls matched to immunologically confirmed cases,0/24
same,HLA-A*32:01 carriage in vancomycin IFN-γ ELISpot positive patients,HLA-A*32:01; immunologically confirmed cases,11/12
same,development of DRESS or symptoms suggestive of DRESS,"[5]; 119 HLA-A*32:01 negative individuals, at least one week of uninterrupted vancomycin",none
same,estimated probability of developing DRESS,"[5]; HLA-A*32:01 carriers, at four weeks of vancomycin",19.2% and ~20%
same,median time to DRESS symptoms after vancomycin initiation,[5]; vancomycin-exposed BioVU cohort,18 days
same,mean vancomycin trough,"DRESS cases, n=116",17.2 µg/mL
same,range of vancomycin trough,"DRESS cases, n=116",3 to 44 µg/mL
same,mean vancomycin trough,"tolerant controls, n=644",19.6 µg/mL
same,median vancomycin trough,"tolerant controls, n=644",18 µg/mL
same,range of vancomycin trough,"tolerant controls, n=644",2 to 86 µg/mL
same,intradermal challenge response,[6]; HLA-A*32:01 positive individuals not exposed to vancomycin,negative responses
same,immediate IDT response at 20 minutes,[6]; both HLA-A*32:01 positive individuals (patient 18 and control C51),strong immediate histamine response
same,delayed IDT at 24 and 48 hours,"[6]; patient 18 (history of DRESS), 0.5, 5 and 50 mg/mL",delayed positive IDT; also recorded: concentration dependent induration of the skin
same,IFN-γ ELISpot response,[2]; [10],did respond
same,IFN-γ ELISpot response,[2]; PBMCs from patient 21 (HLA-A*32:01 negative),persistently negative
same,DRESS cases with a positive IFN-γ ELISpot response,"[2]; PBMCs of prospectively enrolled vancomycin DRESS cases, positive >50 SFU/million cells",12/14
same,IFN-γ ELISpot concentration dependence,"[2]; patient and control PBMCs, also 5 μg/mL and 50 μg/mL, data not shown",dose-dependent response
same,IFN-γ ELISpot at repeat blood draws,"[2]; three ELISpot positive patients, time points distant from the initial reaction",repeat positive results
same,IFN-γ ELISpot response in controls,[7],none demonstrated a positive vancomycin IFN-γ ELISpot; also recorded: None of the controls released IFN-γ
CN[C@H]1C(=O)N[C@@H]2Cc3ccc(cc3)Oc3cc4cc(c3O[C@@H]3O[C@H](C(=O)O)[C@@H](O)[C@H](O)[C@H]3NC(=O)CCCCCCCCC(C)C)Oc3ccc(cc3Cl)[C@@H](O)[C@@H]3NC(=O)[C@H](NC(=O)[C@@H]4NC(=O)[C@@H](NC2=O)c2cc(cc(O)c2Cl)Oc2cc1ccc2O)c1ccc(O)c(c1)-c1c(O[C@H]2O[C@H](CO)[C@@H](O)[C@H](O)[C@@H]2O)cc(O)cc1[C@@H](C(=O)NCCCN(C)C)NC3=O [dalbavancin],vancomycin DRESS cases with negative ELISpot / no cross-reactivity,[1],100%
same,half-life,[8],14 days
teicoplanin,delayed intradermal testing,[3]; in vivo,negative
same,vancomycin DRESS cases with a negative IFN-γ ELISpot response,[1],13/15
same,vancomycin DRESS cases with immunological cross-reactivity by ELISpot,[1],13%
same,vancomycin DRESS cases with negative ELISpot / no cross-reactivity,[1],approximately 87%
same,cross-reactivity with vancomycin in IFN-γ ELISpot,[1]; Patient ID 8 and 15,cross-reactivity
same,IFN-γ ELISpot response,"[1]; Patient ID 9, 10, and 11",negative IFN-γ ELISpot
same,vancomycin DRESS cases with a positive IFN-γ ELISpot response,[1]; positive >50 SFU/million cells,2/15
C[C@H]1COc2c(N3CCN(C)CC3)c(F)cc3c(=O)c(C(=O)O)cn1c23 [levofloxacin],oral challenge / rechallenge,[9],negative; also recorded: successfully rechallenged
